# Laboratory results: patent US9980943B2, “Methods of treating muscular dystrophy” (BOARD OF REGENTS OF THE NEVADA SYSTEM OF HIGHER EDUCATION, …, priority 2013, dated 2018)
# Tests used:
# Format in all cases: cell-based, mouse
# [1] = system: α7 integrin (LacZ reporter in α7+/LacZ myotubes); assay: Myotube α7 integrin FDG assay (Burkin assay in myotubes, 96-well)
# [2] = system: α7 integrin (LacZ reporter in α7βgal+/− myoblasts); assay: Myoblast α7+/LacZ integrin FDG assay (Burkin assay in myoblasts, 96-well); details: α7+/LacZ myoblasts, 96-well
# [3] = system: β-galactosidase in CMV-LacZ C2C12 myotubes; assay: CMV-LacZ secondary screen in C2C12 myotubes (β-Gal stabilizing assay); details: C2C12 CMV-LacZ myotubes, fold relative to DMSO
# Description: In order to determine compounds that acted to stabilize β-gal in myogenic cells, a CMV-LacZ C2C12 cell line was used in a secondary screen. The EGFP gene from the pEGFP (Clontech) vector was replaced by LACZ PCR product with digests of the vector/PCR product performed using EcoRI (NEB) and NotI (NEB) and ligated using T4 DNA Ligase (NEB) following standard procedures to produce the CMV-LACZ vector. The LACZ gene was generated by PCR from the pBK-RSV (Stratagene) vector using primers LACZ EcoRI F- and LACZ NotI R-. The CMV-LACZ vector was then digested with AfIII (NEB) to linearize the construct, which was then transfected in C2C12 myoblasts using Lipofectamine 2000 (Invitrogen) following the manufacturer's instructions. […] Clonal lines were selected and screened for βgal levels using the myoblast FDG assay.
# The assays were used the original 96-well format and new dose-response curves for myoblasts (N=3-6 replicates for each data point), myotubes (N=3-6 replicates for data point), and CMV-LacZ secondary assay (N=2 replicates for each data point) using concentrations of 0.5 μM, 1 μM, 5 μM, 10 μM, 20 μM, and 40 μM (Tables 9-16).
Compound,Burkin Assay in Myotubes (signal relative to DMSO) ([1]; 0.5 uM),Burkin Assay in Myotubes (signal relative to DMSO) ([1]; 1 uM),Burkin Assay in Myotubes (signal relative to DMSO) ([1]; 5 uM),Burkin Assay in Myotubes (signal relative to DMSO) ([1]; 10 uM),Burkin Assay in Myotubes (signal relative to DMSO) ([1]; 20 uM),Burkin Assay in Myotubes (signal relative to DMSO) ([1]; 40 uM),"Burkin Assay in Myoblasts, value relative to DMSO ([2]; 0.5 uM)","Burkin Assay in Myoblasts, value relative to DMSO ([2]; 1 uM)","Burkin Assay in Myoblasts, value relative to DMSO ([2]; 5 uM)","Burkin Assay in Myoblasts, value relative to DMSO ([2]; 10 uM)","Burkin Assay in Myoblasts, value relative to DMSO ([2]; 20 uM)","Burkin Assay in Myoblasts, value relative to DMSO ([2]; 40 uM)","CMV-LACZ in Myotubes, signal relative to DMSO ([3]; 5 uM)","CMV-LACZ in Myotubes, signal relative to DMSO ([3]; 10 uM)","CMV-LACZ in Myotubes, signal relative to DMSO ([3]; 20 uM)","CMV-LACZ in Myotubes, signal relative to DMSO ([3]; 40 uM)","Burkin Assay in Myotubes, α7 integrin LacZ reporter signal relative to DMSO ([1]; 0.5 uM)","Burkin Assay in Myotubes, α7 integrin LacZ reporter signal relative to DMSO ([1]; 1 uM)","Burkin Assay in Myotubes, α7 integrin LacZ reporter signal relative to DMSO ([1]; 5 uM)","Burkin Assay in Myotubes, α7 integrin LacZ reporter signal relative to DMSO ([1]; 10 uM)",also measured
OC1(c2ccccc2)C/C(=N\n2cnnc2)C=C1c1ccccc1 (stereo not drawn) [MLS000081838-01],0.7425,1.018,0.9002,0.8704,1.225,1.036,1.0627,1.047,0.9611,0.9253,0.9822,0.9234,0.9175,0.8889,1.018,0.9697,–,–,–,–,–
CC(=O)Nc1nonc1-c1nc2ccccc2n1CCC(C)C [MLS000085522-01],–,–,–,–,–,–,–,–,–,–,–,–,1.092,0.9804,0.7733,0.9509,0.9622,0.8415,0.872,0.9249,"Burkin Assay in Myotubes, α7 integrin LacZ reporter signal relative to DMSO ([1]; 20 uM): 1.029; Burkin Assay in Myotubes, α7 integrin LacZ reporter signal relative to DMSO ([1]; 40 uM): 0.556; Burkin Assay in Myoblasts, signal relative to DMSO ([2]; 0.5 uM): 0.9927; Burkin Assay in Myoblasts, signal relative to DMSO ([2]; 1 uM): 0.872; Burkin Assay in Myoblasts, signal relative to DMSO ([2]; 5 uM): 1.118; Burkin Assay in Myoblasts, signal relative to DMSO ([2]; 10 uM): 0.9531; Burkin Assay in Myoblasts, signal relative to DMSO ([2]; 20 uM): 0.9728; Burkin Assay in Myoblasts, signal relative to DMSO ([2]; 40 uM): 0.7481"
Cc1cc(C)cc(-n2nnc(C(=O)NCc3ccccc3Cl)c2N)c1 [MLS000094770-01],1.14,1,1.317,0.823,0.8175,0.7119,1.021,0.9676,0.9491,0.9866,0.7999,0.6762,0.8081,0.9406,0.9412,0.8421,–,–,–,–,–
Cc1cc(-c2ccccc2)n2nc(N)nc2n1 [MLS000122180-01],1.006,0.9341,1.027,0.7456,0.9557,0.9496,0.8023,0.8424,0.9726,0.9665,1.004,0.9116,0.7773,0.8808,0.8136,1.007,–,–,–,–,–
O=C(c1cccs1)N(Cc1ccco1)c1nc(-c2ccc(F)cc2)cs1 [MLS000122749-01],–,–,–,–,–,–,–,–,–,–,–,–,1.022,1.063,0.808,1.0025,1.042,0.9982,1.096,1.131,"Burkin Assay in Myotubes, α7 integrin LacZ reporter signal relative to DMSO ([1]; 20 uM): 1.256; Burkin Assay in Myotubes, α7 integrin LacZ reporter signal relative to DMSO ([1]; 40 uM): 0.9306; Burkin Assay in Myoblasts, signal relative to DMSO ([2]; 0.5 uM): 1.113; Burkin Assay in Myoblasts, signal relative to DMSO ([2]; 1 uM): 1.04; Burkin Assay in Myoblasts, signal relative to DMSO ([2]; 5 uM): 1.026; Burkin Assay in Myoblasts, signal relative to DMSO ([2]; 10 uM): 1.116; Burkin Assay in Myoblasts, signal relative to DMSO ([2]; 20 uM): 1.185; Burkin Assay in Myoblasts, signal relative to DMSO ([2]; 40 uM): 0.948"
"CCCC(=O)[O-].[Na+] [sodium butyrate, reference compound]",–,–,–,–,–,–,–,–,–,–,–,–,–,–,–,–,–,–,–,–,"β-galactosidase levels ([1]; treatments of ~1.5 mM, preliminary screens): increase β-galactosidase levels"
